The target in one experiment is T1, BRAF V600E (Homo sapiens, UniProt P15056, V600E).
T1 construct: expressed in transfected cells
Kind of experiment: Cellular assay of target protein degradation, T-Rex 293 cells stably transfected with HA-BRAF_V600E (HA immunofluorescence, high content imaging). Type of experiment: cell-based. As to conditions: T-Rex 293 HA-BRAF V600E; for DC50: half maximal degradation, read-out: BRaf V600E DC50; for Dmax: maximum degradation observed. The gist of the method:
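Read-out is anti-HA immunofluorescence quantified by high-content imaging, giving half-maximal degradation concentration (DC50) and maximum degradation (Dmax, percent of control). Cells expressed the construct under 1 ng/mL doxycycline and received compound (1 μM to 0.1 nM final, 0.1% DMSO) for 24 h at 37 °C.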

A further experiment has as its target T2, BRAF G466V (Homo sapiens, UniProt P15056, G466V).
T2 construct: expressed in transfected cells
Kind of experiment: Cellular assay of target protein degradation, T-Rex 293 cells stably transfected with HA-BRAF G466V (HA immunofluorescence, high content imaging). Type of experiment: cell-based. Particulars: T-Rex 293 HA-BRAF G466V; for DC50: half maximal degradation, read-out: BRaf G466V DC50; for Dmax: maximum degradation observed. In a few lines:
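First, stably transfected T-Rex 293 cells were plated with 0.75 ng/mL doxycycline and grown for 24 hours. Next, compound (final 30 nM to 3 pM, 0.1% DMSO) was added for another 24 hours at 37° C. Finally, cells were fixed, stained for HA and imaged.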

Experimental findings from patent US12180193B2, “Accelerating fibrosarcoma protein degrading compounds and associated methods of use” (Arvinas Operations, Inc., priority 2020, dated 2024) are described below.

T1 sequence (P15056 whole entry V600E): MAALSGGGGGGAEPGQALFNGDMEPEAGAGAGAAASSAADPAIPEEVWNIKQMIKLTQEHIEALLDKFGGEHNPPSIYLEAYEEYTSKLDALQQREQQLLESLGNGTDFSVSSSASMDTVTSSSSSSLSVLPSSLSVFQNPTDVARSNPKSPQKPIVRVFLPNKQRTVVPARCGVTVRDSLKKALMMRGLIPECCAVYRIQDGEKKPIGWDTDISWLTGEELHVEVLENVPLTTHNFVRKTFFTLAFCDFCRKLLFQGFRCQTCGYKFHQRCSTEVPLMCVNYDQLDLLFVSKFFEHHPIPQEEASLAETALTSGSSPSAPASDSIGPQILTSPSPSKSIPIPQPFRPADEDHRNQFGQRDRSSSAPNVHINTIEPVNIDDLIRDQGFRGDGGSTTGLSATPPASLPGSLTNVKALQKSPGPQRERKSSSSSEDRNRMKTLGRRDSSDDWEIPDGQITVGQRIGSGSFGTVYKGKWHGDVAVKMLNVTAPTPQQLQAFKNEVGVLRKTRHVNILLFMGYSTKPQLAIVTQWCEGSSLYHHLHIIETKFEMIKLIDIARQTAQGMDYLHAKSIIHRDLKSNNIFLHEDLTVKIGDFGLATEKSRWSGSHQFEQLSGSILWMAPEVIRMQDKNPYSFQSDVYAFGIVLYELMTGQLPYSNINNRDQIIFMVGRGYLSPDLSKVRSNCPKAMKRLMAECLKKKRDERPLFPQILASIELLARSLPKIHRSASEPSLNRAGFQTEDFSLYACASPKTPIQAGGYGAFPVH
T2 sequence (P15056 whole entry G466V): as the sequence (P15056 whole entry V600E) above, with G466V, E600V counted along it

One may read the DC50 as the concentration at which degradation of the target reaches its halfway point. In general, Dmax refers to the greatest extent of degradation seen. Read a high Dmax as deep degradation. Regarding `O=C1CC[C@@H](N2Cc3cc(CCCCN4CC5(C4)CN(c4ccc(-c6cnc7[nH]cc(C(=O)c8c(F)ccc(NS(=O)(=O)N9CC[C@@H](F)C9)c8F)c7c6)cc4)C5)ccc3C2=O)C(=O)N1` [Compound 63, (3R)-N-[3-(5-{4-[6-(4-{2-[(3R)-2,6-dioxopiperidin-3-yl]-1-oxo-2,3-dihydro-1H-isoindol-5-yl}butyl)-2,6-diazaspiro[3.3]heptan-2-yl]phenyl}-1H-pyrrolo[2,3-b]pyridine-3-carbonyl)-2,4-difluorophenyl]-3-fluoropyrrolidine-1-sulfonamide], on BRAF V600E, the DC50 is above 500 nM. Also, at BRAF G466V, the half-maximal degradation concentration (DC50) was in the range of 1 to 10 nM and the maximal degradation (Dmax) is above 70%.

`O=C1CCC(N2Cc3cc(CCCCCN4CCN(c5ccc(-c6cnc7[nH]cc(C(=O)c8c(F)ccc(NS(=O)(=O)N9CC[C@@H](F)C9)c8F)c7c6)cc5)CC4)ccc3C2=O)C(=O)N1` (stereo partly drawn) [Compound 64, (3R)-N-(3-{5-[4-(4-{5-[2-(2,6-dioxopiperidin-3-yl)-1-oxo-2,3-dihydro-1H-isoindol-5-yl]pentyl}piperazin-1-yl)phenyl]-1H-pyrrolo[2,3-b]pyridine-3-carbonyl}-2,4-difluorophenyl)-3-fluoropyrrolidine-1-sulfonamide]: the DC50 on BRAF V600E is 5 to 50 nM; at BRAF G466V, below 1 nM. Further, the Dmax at BRAF V600E and on BRAF G466V was 35 to 70% each time.

Take `O=C1CCC(N2Cc3cc(CCCCCN4CCC(c5ccc(-c6cnc7[nH]cc(C(=O)c8c(F)ccc(NS(=O)(=O)N9CC[C@@H](F)C9)c8F)c7c6)cc5)CC4)ccc3C2=O)C(=O)N1` (stereo partly drawn) [Compound 65, (3R)-N-(3-{5-[4-(1-{5-[2-(2,6-dioxopiperidin-3-yl)-1-oxo-2,3-dihydro-1H-isoindol-5-yl]pentyl}piperidin-4-yl)phenyl]-1H-pyrrolo[2,3-b]pyridine-3-carbonyl}-2,4-difluorophenyl)-3-fluoropyrrolidine-1-sulfonamide]: at BRAF V600E, the DC50 was in the range of 5 to 50 nM and the Dmax lay in the range of 35 to 70%. At BRAF G466V, the 50% degradation concentration (DC50) is below 1 nM and the maximal degradation (Dmax) lay in the range of 35 to 70%.

Consider `O=C1CCC(N2Cc3cc(N4CCC(N5CCCC56CN(c5ccc(-c7cnc8[nH]cc(C(=O)c9c(F)ccc(NS(=O)(=O)N%10CC[C@@H](F)C%10)c9F)c8c7)cc5)C6)CC4)ccc3C2=O)C(=O)N1` (stereo partly drawn) [Compound 66, (3R)-N-(3-{5-[4-(5-{1-[2-(2,6-dioxopiperidin-3-yl)-1-oxo-2,3-dihydro-1H-isoindol-5-yl]piperidin-4-yl}-2,5-diazaspiro[3.4]octan-2-yl)phenyl]-1H-pyrrolo[2,3-b]pyridine-3-carbonyl}-2,4-difluorophenyl)-3-fluoropyrrolidine-1-sulfonamide], for which the DC50 on BRAF V600E was above 500 nM. Further, on BRAF G466V, the half-maximal degradation concentration (DC50) lay within 10 to 30 nM and the maximal degradation (Dmax) was above 70%.

On to `O=C1CC[C@H](N2Cc3cc([C@H](O)CCN4CCC(c5ccc(-c6cnc7[nH]cc(C(=O)c8c(F)ccc(NS(=O)(=O)N9CC[C@@H](F)C9)c8F)c7c6)cc5)CC4)ccc3C2=O)C(=O)N1` [Compound 67, (3R)—N-[3-[5-(4-[1-[(3R)-3-[2-[(3S)-2,6-dioxopiperidin-3-yl]-1-oxo-3H-isoindol-5-yl]-3-hydroxypropyl]piperidin-4-yl]phenyl)-1H-pyrrolo[2,3-b]pyridine-3-carbonyl]-2,4-difluorophenyl]-3-fluoropyrrolidine-1-sulfonamide], for which the DC50 on BRAF V600E fell in the range of 5 to 50 nM; at BRAF G466V, 1 to 10 nM. Besides, the values for the Dmax on BRAF V600E and at BRAF G466V were 35 to 70% and above 70%, respectively.

Consider `O=C1CC[C@@H](N2Cc3cc([C@H](O)CCN4CCC(c5ccc(-c6cnc7[nH]cc(C(=O)c8c(F)ccc(NS(=O)(=O)N9CC[C@@H](F)C9)c8F)c7c6)cc5)CC4)ccc3C2=O)C(=O)N1` [Compound 68, (3R)—N-[3-[5-(4-[1-[(3R)-3-[2-[(3R)-2,6-dioxopiperidin-3-yl]-1-oxo-3H-isoindol-5-yl]-3-hydroxypropyl]piperidin-4-yl]phenyl)-1H-pyrrolo[2,3-b]pyridine-3-carbonyl]-2,4-difluorophenyl]-3-fluoropyrrolidine-1-sulfonamide], for which the half-maximal degradation concentration (DC50) on BRAF V600E is above 500 nM. Also, at BRAF G466V, the 50% degradation concentration (DC50) fell in the range of 1 to 10 nM and the maximal degradation (Dmax) was above 70%.

Consider `O=C1CCC(N2Cc3cc(C4CCN(CCOc5ccc(-c6cnc7[nH]cc(C(=O)c8c(F)ccc(NS(=O)(=O)N9CC[C@@H](F)C9)c8F)c7c6)cc5)CC4)ccc3C2=O)C(=O)N1` (stereo partly drawn) [Compound 69, (3R)-N-(3-{5-[4-(2-{4-[2-(2,6-dioxopiperidin-3-yl)-1-oxo-2,3-dihydro-1H-isoindol-5-yl]piperidin-1-yl}ethoxy)phenyl]-1H-pyrrolo[2,3-b]pyridine-3-carbonyl}-2,4-difluorophenyl)-3-fluoropyrrolidine-1-sulfonamide], for which the DC50 at BRAF V600E is 5 to 50 nM; on BRAF G466V, 1 to 10 nM. The maximal degradation (Dmax) on BRAF V600E is 35 to 70%; on BRAF G466V, above 70%.

For `COc1cc(N2CC(CN3CCN(c4ccc(-c5cnc6[nH]cc(C(=O)c7c(F)ccc(NS(=O)(=O)N8CC[C@@H](F)C8)c7F)c6c5)cc4)CC3)C2)cc2c1C(=O)N(C1CCC(=O)NC1=O)C2` (stereo partly drawn) [Compound 70, (3R)-N-[3-(5-{4-[4-({1-[2-(2,6-dioxopiperidin-3-yl)-7-methoxy-1-oxo-2,3-dihydro-1H-isoindol-5-yl]azetidin-3-yl}methyl)piperazin-1-yl]phenyl}-1H-pyrrolo[2,3-b]pyridine-3-carbonyl)-2,4-difluorophenyl]-3-fluoropyrrolidine-1-sulfonamide], at BRAF V600E, the DC50 fell in the range of 5 to 50 nM and the greatest degradation seen (Dmax) is 35 to 70%. Further, at BRAF G466V, the half-maximal degradation concentration (DC50) was below 1 nM and the Dmax was in the range of 35 to 70%.

In the case of `O=C1CC[C@H](N2Cc3cc([C@@H](O)CCN4CCC(c5ccc(-c6cnc7[nH]cc(C(=O)c8c(F)ccc(NS(=O)(=O)N9CC[C@@H](F)C9)c8F)c7c6)cc5)CC4)ccc3C2=O)C(=O)N1` [Compound 71, (3R)-N-{3-[5-(4-{1-[(3S)-3-{2-[(3S)-2,6-dioxopiperidin-3-yl]-1-oxo-2,3-dihydro-1H-isoindol-5-yl}-3-hydroxypropyl]piperidin-4-yl}phenyl)-1H-pyrrolo[2,3-b]pyridine-3-carbonyl]-2,4-difluorophenyl}-3-fluoropyrrolidine-1-sulfonamide], on BRAF V600E, the DC50 is 5 to 50 nM and the Dmax fell in the range of 35 to 70%. Also, on BRAF G466V, the DC50 fell in the range of 1 to 10 nM and the Dmax was above 70%.

As for `O=C1CC[C@@H](N2Cc3cc([C@@H](O)CCN4CCC(c5ccc(-c6cnc7[nH]cc(C(=O)c8c(F)ccc(NS(=O)(=O)N9CC[C@@H](F)C9)c8F)c7c6)cc5)CC4)ccc3C2=O)C(=O)N1` [Compound 72, (3R)-N-{3-[5-(4-{1-[(3S)-3-{2-[(3R)-2,6-dioxopiperidin-3-yl]-1-oxo-2,3-dihydro-1H-isoindol-5-yl}-3-hydroxypropyl]piperidin-4-yl}phenyl)-1H-pyrrolo[2,3-b]pyridine-3-carbonyl]-2,4-difluorophenyl}-3-fluoropyrrolidine-1-sulfonamide], at BRAF V600E, the half-maximal degradation concentration (DC50) was in the range of 5 to 50 nM and the maximal degradation (Dmax) was below 35%. On BRAF G466V, the DC50 lay within 1 to 10 nM and the greatest degradation seen (Dmax) is 35 to 70%.

In the case of `O=C1CC[C@@H](N2Cc3cc(C[C@@H](O)CN4CCN(c5ccc(-c6cnc7[nH]cc(C(=O)c8c(F)ccc(NS(=O)(=O)N9CC[C@@H](F)C9)c8F)c7c6)cc5)CC4)ccc3C2=O)C(=O)N1` [Compound 73, (3R)-N-{3-[5-(4-{4-[(2R)-3-{2-[(3R)-2,6-dioxopiperidin-3-yl]-1-oxo-2,3-dihydro-1H-isoindol-5-yl}-2-hydroxypropyl]piperazin-1-yl}phenyl)-1H-pyrrolo[2,3-b]pyridine-3-carbonyl]-2,4-difluorophenyl}-3-fluoropyrrolidine-1-sulfonamide], on BRAF V600E, the DC50 lay within 5 to 50 nM and the maximal degradation (Dmax) lay in the range of 35 to 70%. Besides, on BRAF G466V, the DC50 was in the range of 1 to 10 nM and the maximal degradation (Dmax) was above 70%.

On to `O=C1CC[C@H](N2Cc3cc(C[C@H](O)CN4CCN(c5ccc(-c6cnc7[nH]cc(C(=O)c8c(F)ccc(NS(=O)(=O)N9CC[C@@H](F)C9)c8F)c7c6)cc5)CC4)ccc3C2=O)C(=O)N1` [Compound 74], for which, at BRAF V600E, the DC50 fell in the range of 5 to 50 nM and the Dmax lay within 35 to 70%. Also, at BRAF G466V, the DC50 lay within 1 to 10 nM and the greatest degradation seen (Dmax) was above 70%.

With `O=C1CC[C@@H](N2Cc3cc(C[C@H](O)CN4CCN(c5ccc(-c6cnc7[nH]cc(C(=O)c8c(F)ccc(NS(=O)(=O)N9CC[C@@H](F)C9)c8F)c7c6)cc5)CC4)ccc3C2=O)C(=O)N1` [Compound 75, (3R)-N-{3-[5-(4-{4-[(2S)-3-{2-[(3R)-2,6-dioxopiperidin-3-yl]-1-oxo-2,3-dihydro-1H-isoindol-5-yl}-2-hydroxypropyl]piperazin-1-yl}phenyl)-1H-pyrrolo[2,3-b]pyridine-3-carbonyl]-2,4-difluorophenyl}-3-fluoropyrrolidine-1-sulfonamide], the figures for the DC50 on BRAF V600E and at BRAF G466V were below 5 nM and 1 to 10 nM, respectively. Also, the maximal degradation (Dmax) at BRAF V600E is 35 to 70%; on BRAF G466V, above 70%.

`O=C1CC[C@H](N2Cc3cc(CN4C[C@@H]5CN(c6ccc(-c7cnc8[nH]cc(C(=O)c9c(F)ccc(NS(=O)(=O)N%10CC[C@@H](F)C%10)c9F)c8c7)cc6)C[C@@H]5C4)ccc3C2=O)C(=O)N1` [Compound 76, (3R)-N-[3-(5-{4-[(3aR,6aS)-5-({2-[(3S)-2,6-dioxopiperidin-3-yl]-1-oxo-2,3-dihydro-1H-isoindol-5-yl}methyl)-octahydropyrrolo[3,4-c]pyrrol-2-yl]phenyl}-1H-pyrrolo[2,3-b]pyridine-3-carbonyl)-2,4-difluorophenyl]-3-fluoropyrrolidine-1-sulfonamide]: at BRAF V600E, the DC50 was 5 to 50 nM and the Dmax is 35 to 70%. Besides, on BRAF G466V, the DC50 is above 30 nM.
